Laboratory results reported in patent publication US20260138970A1, “MODULATORS OF THE CALCIUM SIGNALING CASCADE” (FONDAZIONE TELETHON ETS, priority 2022, published 2026).

What was measured:
[1] = system: protease-activated and bradykinin receptors; conditions: protease-activated and bradykinin receptor agonists; cited from earlier work
R269W ITPR1 = target: T1, R269W ITPR1 (Homo sapiens, UniProt Q14643, R269W); assay: IP3 uncaging assay, HEK293 cells expressing R269W-ITPR1; type: cell-based; conditions: compound 10 μM; tetracycline-treated; FIG. 6D
T1 construct: expressed in transfected cells
Description: HEK293 cells stably transfected with tetracycline-inducible expression of wild type or mutant (R269W or T267M) ITPR1, kindly provided by Prof. S. R. Wayne Chen (University of Calgary; ref. 14), were cultured in a mixture of Dulbecco's Modified Eagle Medium (DMEM, high glucose version) and Ham's F12 (1:1) and supplemented with 10% fetal bovine serum, 2 mM L-glutamine, 100 U/ml penicillin and 100 μg/ml streptomycin. Cells were selected with 0.5 mg/ml hygromycin B and induced with 1 μg/ml tetracycline.
FRT and HEK293 cells were cultured in μ-Plate96 microplates (Ibidi) at subconfluent condition. Cells were washed 2 times with PBS (150 μl/wash) and then loaded for 45 min at 37° C. with 1 μM ci-IP3/PM (Tocris; catalog number: 6210/10U) and 5 μM Fluo-4/AM (Thermo Fisher Scientific) in PBS containing 10 mM glucose, 0.5 mM sulfinpyrazone and 1% fetal bovine serum. After 45 min, cells were further incubated for 1 h at 37° C. with a fresh PBS solution containing Fluo-4/AM, glucose, sulfinpyrazone, serum, but no ci-IP3/PM. […] Analysis was performed with MetaFluor software, by quantifying Fluo-4 fluorescence in manually selected single cell region of interest (ROI). […] After background subtraction, fluorescence traces were normalized for the initial value.

ITPR1 = ITPR1 (Homo sapiens, UniProt Q14643); assay: On-nucleus patch-clamp single-channel recordings, HEKR1 cells expressing ITPR1-EYFP; type: biochemical; design: EYFP; expressed in transfected cells; nuclei isolated for on-nucleus patch clamp; conditions: 20 μM in pipette solution
Description: Nuclear membrane patch currents were recorded in HEKR1 cells stably transfected with a plasmid encoding human ITPR1 tagged with Enhanced Yellow Fluorescent Protein (EYFP) kindly provided by Prof. Colin W. Taylor (University of Cambridge) (17). For nuclei isolation, at least 1,000,000 HEKR1-ITPR1-EYFP cells plated in a 35 mm Petri dish were used following the protocol for patch clamp on the outer nuclear membrane (18,19). Briefly, a Duall homogenizer 20 tube (Kimble Chase 885482-0020) and a tissue grind (Kimble 885480-0020) were used. 20 strokes were applied to cells suspended in NIS-0 solution (25). NIS-O solution consisted of 40 ml of sucrose buffer (150 mM KCl, 250 mM sucrose, 1.4 mM β-mercaptoethanol, 10 mM Tris-HCl; pH 7.3 with KOH) supplemented with one tablet of complete protease inhibitor cocktail (Roche) and 200 μM PMSF.
Borosilicate glass pipettes were pulled on a two-step vertical puller (Narishige) to a final resistance of around 15-20 MO, as measured in the working solution. […]
During experiments, the membrane capacitance was analogically compensated using the circuitry provided by the EPC10 patch-clamp amplifier. […] Data were analysed using the Igor software (WaveMetrics, Lake Oswego, OR, USA) supplemented by custom software kindly provided by Dr. Oscar Moran (Institute of Biophysics, CNR, Genova, Italy).

ITPR1, sequence (Q14643 whole entry): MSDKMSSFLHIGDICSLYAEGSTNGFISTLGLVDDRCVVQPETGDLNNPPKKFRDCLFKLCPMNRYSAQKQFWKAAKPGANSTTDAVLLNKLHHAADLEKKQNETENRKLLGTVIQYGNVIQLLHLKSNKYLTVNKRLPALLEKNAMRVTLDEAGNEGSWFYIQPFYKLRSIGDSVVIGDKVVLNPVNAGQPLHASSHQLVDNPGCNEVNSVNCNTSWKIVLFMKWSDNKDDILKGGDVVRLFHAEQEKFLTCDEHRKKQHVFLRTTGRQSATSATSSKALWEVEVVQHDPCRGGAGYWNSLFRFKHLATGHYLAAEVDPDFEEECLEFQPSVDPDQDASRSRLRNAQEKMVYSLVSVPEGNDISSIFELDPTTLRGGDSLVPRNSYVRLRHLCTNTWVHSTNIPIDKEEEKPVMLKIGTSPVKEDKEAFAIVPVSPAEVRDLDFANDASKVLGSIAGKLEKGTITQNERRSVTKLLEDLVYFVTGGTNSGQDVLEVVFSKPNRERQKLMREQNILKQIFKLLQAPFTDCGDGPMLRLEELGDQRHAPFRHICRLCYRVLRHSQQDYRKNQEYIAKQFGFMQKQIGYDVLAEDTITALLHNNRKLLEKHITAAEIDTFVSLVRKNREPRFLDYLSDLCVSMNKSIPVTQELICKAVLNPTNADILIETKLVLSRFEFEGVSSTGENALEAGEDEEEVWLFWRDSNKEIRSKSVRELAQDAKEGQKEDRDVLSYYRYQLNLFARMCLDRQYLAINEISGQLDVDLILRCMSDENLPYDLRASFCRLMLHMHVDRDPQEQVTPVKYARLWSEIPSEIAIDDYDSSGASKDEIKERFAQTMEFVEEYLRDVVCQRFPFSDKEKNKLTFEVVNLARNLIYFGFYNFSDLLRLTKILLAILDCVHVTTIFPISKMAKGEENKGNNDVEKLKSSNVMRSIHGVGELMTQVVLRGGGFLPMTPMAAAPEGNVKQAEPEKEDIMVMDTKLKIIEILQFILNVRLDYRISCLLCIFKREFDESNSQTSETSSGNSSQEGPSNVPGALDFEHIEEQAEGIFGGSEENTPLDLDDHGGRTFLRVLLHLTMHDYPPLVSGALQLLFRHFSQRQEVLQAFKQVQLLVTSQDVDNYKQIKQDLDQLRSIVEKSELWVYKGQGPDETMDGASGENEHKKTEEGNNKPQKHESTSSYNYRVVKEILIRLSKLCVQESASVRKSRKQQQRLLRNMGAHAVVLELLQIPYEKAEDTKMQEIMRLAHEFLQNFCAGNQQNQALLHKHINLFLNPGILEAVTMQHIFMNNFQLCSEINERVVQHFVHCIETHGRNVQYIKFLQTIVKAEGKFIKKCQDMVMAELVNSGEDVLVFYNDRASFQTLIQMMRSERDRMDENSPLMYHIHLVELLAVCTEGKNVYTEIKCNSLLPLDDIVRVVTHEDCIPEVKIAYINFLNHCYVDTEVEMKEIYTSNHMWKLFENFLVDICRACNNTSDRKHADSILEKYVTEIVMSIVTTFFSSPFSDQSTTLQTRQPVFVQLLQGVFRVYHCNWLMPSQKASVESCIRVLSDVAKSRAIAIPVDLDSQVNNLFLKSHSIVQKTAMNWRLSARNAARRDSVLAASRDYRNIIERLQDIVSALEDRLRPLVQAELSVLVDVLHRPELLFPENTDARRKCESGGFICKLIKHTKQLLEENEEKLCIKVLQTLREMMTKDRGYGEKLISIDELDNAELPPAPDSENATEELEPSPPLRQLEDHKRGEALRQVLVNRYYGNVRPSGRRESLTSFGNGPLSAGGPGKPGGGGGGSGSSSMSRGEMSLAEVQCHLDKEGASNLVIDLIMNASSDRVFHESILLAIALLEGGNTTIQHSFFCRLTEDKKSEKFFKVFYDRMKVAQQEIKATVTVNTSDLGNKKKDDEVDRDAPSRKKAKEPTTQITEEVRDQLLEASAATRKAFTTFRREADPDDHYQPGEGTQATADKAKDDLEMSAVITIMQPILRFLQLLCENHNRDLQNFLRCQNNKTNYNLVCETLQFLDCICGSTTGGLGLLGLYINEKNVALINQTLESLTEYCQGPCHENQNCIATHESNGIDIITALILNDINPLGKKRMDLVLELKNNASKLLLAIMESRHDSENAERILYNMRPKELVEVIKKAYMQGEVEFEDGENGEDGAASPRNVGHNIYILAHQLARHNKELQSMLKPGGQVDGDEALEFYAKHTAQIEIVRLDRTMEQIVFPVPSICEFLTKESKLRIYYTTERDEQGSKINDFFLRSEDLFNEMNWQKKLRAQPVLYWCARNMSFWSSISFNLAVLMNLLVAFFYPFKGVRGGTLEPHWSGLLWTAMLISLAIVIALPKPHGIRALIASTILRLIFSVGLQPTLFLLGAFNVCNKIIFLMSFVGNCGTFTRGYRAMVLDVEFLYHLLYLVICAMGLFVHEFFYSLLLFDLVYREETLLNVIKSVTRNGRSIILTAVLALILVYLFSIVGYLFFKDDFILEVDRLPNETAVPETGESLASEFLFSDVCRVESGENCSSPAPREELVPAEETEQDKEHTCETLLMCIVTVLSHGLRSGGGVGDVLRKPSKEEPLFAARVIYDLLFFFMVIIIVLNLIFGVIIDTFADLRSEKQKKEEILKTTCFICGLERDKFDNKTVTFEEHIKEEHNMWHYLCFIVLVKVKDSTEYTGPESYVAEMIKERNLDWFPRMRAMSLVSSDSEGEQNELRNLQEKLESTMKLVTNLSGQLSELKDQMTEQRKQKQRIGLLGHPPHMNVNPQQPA

Compound: CCc1cc(-c2cc(NCCCOc3ccccc3C)nc(N)n2)n(C)n1 [ARN7149, 6-(3-Ethyl-1-methyl-1H-pyrazol-5-yl)-N^4-(3-(o-tolyloxy)propyl)pyrimidine-2,4-diamine]
- effectiveness by agonist inducing Ca2+ mobilization (UTP vs other GPCR agonists) [1]: only effective when Ca^2+ mobilization is induced by UTP

Compound: CCn1nc2c(c1C(=O)Nc1ccccc1OCC1CCCCO1)CCCC2 (stereo not shown) [ARN11391, 2-Ethyl-N-[2-(tetrahydropyran-2-ylmethoxy)phenyl]-4,5,6,7-tetrahydroindazole-3-carboxamide]
- Ca2+ mobilization elicited by IP3 uncaging, R269W-ITPR1 (R269W ITPR1): significantly amplified
- open channel probability (Po), average (ITPR1; Vp=+40 mV, FIG. 6A): ~0.2
- attempts with single channel openings of the expected ITPR1 current amplitude (ITPR1; ~10 pA at +40 mV): 5 out of 32
